Patent US20250144067A1, “PERSONALIZED STARVATION THERAPY FOR CANCER” (Faeth Therapeutics, Inc., priority 2021, published 2025)
Counter-ions that a name gives are not always drawn.

Columns and labels:
[1] = system: NCI-H292 lung cancer cells; test: FDA drug screening, complete media vs cholesterol-free media with simvastatin (TABLE 2); format: cell-based, human; settings: for Cholesterol-free media + simvastatin (0.04 μM) / Complete Media: NCI-H292 cells
[2] = system: NCI-H292 lung cancer cells; test: FDA drug screening, complete media vs cholesterol-free media without statin (TABLE 1); format: cell-based, human
[3] = cholesterol-free media with simvastatin 0.04 μM, cell growth value in FDA drug screen
[4] = complete media, cell growth value in FDA drug screen
[5] = complete media minus cholesterol-free media + simvastatin, >0 enhanced anti-cancer activity, about 0 neutral, <0 antagonist
[6] = Complete minus Cholesterol-free, >0 enhanced anti-cancer activity, about 0 neutral, <0 antagonist
[7] = NCI-H292 cells, cholesterol-free media without statin, FDA drug library screen
[8] = NCI-H292 cells, complete media, FDA drug library screen
[9] = FDA library drug in cholesterol-free media with simvastatin 0.04 μM
[10] = FDA library drug in complete media
[11] = complete media vs cholesterol-free media + simvastatin (0.04 μM), >0 enhanced anti-cancer activity, about 0 neutral, <0 antagonist
[12] = NCI-H292 cells, cholesterol-free media without statin
[13] = complete vs cholesterol-free media, greater than 0 enhanced anti-cancer activity, about 0 neutral, below 0 antagonists
[14] = cholesterol-free media with simvastatin 0.04 μM, FDA drug library screen (TABLE 2)
[15] = complete media, FDA drug library screen (TABLE 2)
[16] = complete media minus cholesterol-free media + simvastatin (0.04 μM), […]
[17] = Complete minus Cholesterol-free, […]
[18] = FDA drug library screen, cholesterol-free media with simvastatin 0.04 μM
[19] = FDA drug library screen, complete media
[20] = complete media minus cholesterol-free media + simvastatin, […]
[21] = NCI-H292 cells, FDA drug library screen, cholesterol-free media without statin
[22] = NCI-H292 cells, FDA drug library screen, complete media
[23] = Complete minus Cholesterol-free, greater than 0 enhanced anti-cancer activity, about 0 neutral, below 0 antagonist
[24] = complete vs cholesterol-free media, >0 enhanced anti-cancer activity, about 0 neutral, <0 antagonist
[25] = drug in cholesterol-free media with simvastatin 0.04 μM
[26] = complete media vs cholesterol-free media + simvastatin (0.04 μM), […]
[27] = complete media minus cholesterol-free media + simvastatin (0.04 μM), >0 enhanced anti-cancer activity, about 0 neutral, <0 antagonist
[28] = complete vs cholesterol-free media, […]

## Cn1ncnc1[C@H]1c2n[nH]c(=O)c3cc(F)cc(c23)N[C@@H]1c1ccc(F)cc1 [Talazoparib]
[1]; [3]
  Cholesterol-free media + simvastatin (0.04 μM): 0.3041
[1]; [4]
  Complete Media: 0.3489
[1]; [5]
  Difference: 0.04
[2]; [6]
  Difference: −0.06
[2]; [7]
  Cholesterol-free: 0.2349
[2]; [8]
  Complete: 0.179

## CC1=C(C(=O)O)N2C(=O)[C@@H](NC(=O)[C@H](N)c3ccccc3)[C@H]2SC1 [Cephalexin (monohydrate)]
[1]; [9]
  Cholesterol-free media + simvastatin (0.04 μM): 1.59
[1]; [10]
  Complete Media: 0.9161
[1]; [11]
  Difference: −0.67
[2]; [12]
  Cholesterol-free: 1.506
[2]; NCI-H292 cells, complete media
  Complete: 1.062
[2]; [13]
  Difference: −0.44

## CCC[C@@]1(CCc2ccccc2)CC(O)=C([C@H](CC)c2cccc(NS(=O)(=O)c3ccc(C(F)(F)F)cn3)c2)C(=O)O1 [Tipranavir]
[1]; [14]
  Cholesterol-free media + simvastatin (0.04 μM): 1.22
[1]; [15]
  Complete Media: 1.177
[1]; [16]
  Difference: −0.04
[2]; [17]
  Difference: −0.27
[2]; [12]
  Cholesterol-free: 0.9401
[2]; NCI-H292 cells, complete media
  Complete: 0.6703

## O=C1NS(=O)(=O)c2ccccc21 [Saccharin]
[1]; [18]
  Cholesterol-free media + simvastatin (0.04 μM): 0.8779
[1]; [19]
  Complete Media: 0.7765
[1]; [11]
  Difference: −0.10
[2]; [6]
  Difference: 0.01
[2]; [7]
  Cholesterol-free: 0.9292
[2]; [8]
  Complete: 0.9415

## COc1cc(C)c(/C=C/C(C)=C/C=C/C(C)=C/C(=O)O)c(C)c1C [Acitretin]
[1]; cholesterol-free media with simvastatin 0.04 μM, […]
  Cholesterol-free media + simvastatin (0.04 μM): 0.7241
[1]; complete media, […]
  Complete Media: 0.76
[1]; [20]
  Difference: 0.04
[2]; [17]
  Difference: −0.08
[2]; [21]
  Cholesterol-free: 0.8064
[2]; [22]
  Complete: 0.7285

## COc1ccc2cccc(CCNC(C)=O)c2c1 [Agomelatine (hydrochloride)]
[1]; [9]
  Cholesterol-free media + simvastatin (0.04 μM): 1.126
[1]; [10]
  Complete Media: 0.7656
[1]; [11]
  Difference: −0.36
[2]; [6]
  Difference: 0.00
[2]; [7]
  Cholesterol-free: 0.7477
[2]; [8]
  Complete: 0.7483

## COC(=O)C1=C(C)NC(C)=C(C(=O)OCCN(C)Cc2ccccc2)C1c1cccc([N+](=O)[O-])c1 (stereo not drawn) [Nicardipine (hydrochloride)]
[1]; [9]
  Cholesterol-free media + simvastatin (0.04 μM): 1.292
[1]; [10]
  Complete Media: 0.8256
[1]; [11]
  Difference: −0.47
[2]; [6]
  Difference: −0.01
[2]; [7]
  Cholesterol-free: 0.9198
[2]; [8]
  Complete: 0.9062

## Alarelin (Acetate)
[1]; [14]
  Cholesterol-free media + simvastatin (0.04 μM): 0.8515
[1]; [15]
  Complete Media: 0.85
[1]; [16]
  Difference: 0.00
[2]; [17]
  Difference: −0.71
[2]; NCI-H292 cells in cholesterol-free media without statin
  Cholesterol-free: 2.133
[2]; NCI-H292 cells in complete media
  Complete: 1.426

## NC(=O)NS(=O)(=O)c1ccc(N)cc1 [Sulfacarbamide]
[1]; [18]
  Cholesterol-free media + simvastatin (0.04 μM): 0.9379
[1]; [19]
  Complete Media: 1.144
[1]; [5]
  Difference: 0.21
[2]; [6]
  Difference: 0.04
[2]; [7]
  Cholesterol-free: 0.9085
[2]; [8]
  Complete: 0.9465

## Salbutamol (hemisulfate)
[1]; [9]
  Cholesterol-free media + simvastatin (0.04 μM): 2.036
[1]; [10]
  Complete Media: 1.453
[1]; [11]
  Difference: −0.58
[2]; [23]
  Difference: −0.13
[2]; [21]
  Cholesterol-free: 1.595
[2]; [22]
  Complete: 1.464

## CC(=C(CCOC(=O)C(C)C)SSC(CCOC(=O)C(C)C)=C(C)N(C=O)Cc1cnc(C)nc1N)N(C=O)Cc1cnc(C)nc1N (stereo in doubt) [Sulbutiamine]
[1]; [3]
  Cholesterol-free media + simvastatin (0.04 μM): 0.8359
[1]; [4]
  Complete Media: 0.9183
[1]; [5]
  Difference: 0.08
[2]; [7]
  Cholesterol-free: 1.257
[2]; [8]
  Complete: 1.438
[2]; [24]
  Difference: 0.18

## CCO.C[C@H]1c2cccc(O)c2C(O)=C2C(=O)[C@]3(O)C(O)=C(C(N)=O)C(=O)[C@@H](N(C)C)[C@@H]3[C@@H](O)[C@@H]21.C[C@H]1c2cccc(O)c2C(O)=C2C(=O)[C@]3(O)C(O)=C(C(N)=O)C(=O)[C@@H](N(C)C)[C@@H]3[C@@H](O)[C@@H]21.Cl.Cl.O [Doxycycline (hyclate)]
[1]; [25]
  Cholesterol-free media + simvastatin (0.04 μM): 1.074
[1]; drug in complete media
  Complete Media: 0.8852
[1]; [11]
  Difference: −0.19
[2]; [23]
  Difference: −0.15
[2]; [21]
  Cholesterol-free: 1.09
[2]; [22]
  Complete: 0.9355

## CC(=O)OCC1=C(C(=O)O)N2C(=O)[C@@H](NC(=O)CSC(=NC(C)C)NC(C)C)[C@H]2SC1 [Cefathiamidine]
[1]; [18]
  Cholesterol-free media + simvastatin (0.04 μM): 0.9136
[1]; [19]
  Complete Media: 0.833
[1]; [26]
  Difference: −0.08
[2]; [17]
  Difference: −0.30
[2]; [12]
  Cholesterol-free: 1.276
[2]; NCI-H292 cells, complete media
  Complete: 0.9789

## CCOC(=O)[C@H](CCc1ccccc1)N[C@H]1CS[C@H](c2cccs2)CN(CC(=O)O)C1=O [Temocapril (hydrochloride)]
[1]; [14]
  Cholesterol-free media + simvastatin (0.04 μM): 1.423
[1]; [15]
  Complete Media: 1.436
[1]; [27]
  Difference: 0.01
[2]; [6]
  Difference: 0.00
[2]; [7]
  Cholesterol-free: 0.6068
[2]; [8]
  Complete: 0.6079

## Cc1cc(O)cc(C)c1Cl [Chloroxylenol]
[1]; [14]
  Cholesterol-free media + simvastatin (0.04 μM): 0.9866
[1]; [15]
  Complete Media: 0.951
[1]; [27]
  Difference: −0.04
[2]; [6]
  Difference: −0.19
[2]; [12]
  Cholesterol-free: 1.219
[2]; NCI-H292 cells, complete media
  Complete: 1.028

## CCC[C@H](NC(=O)[C@@H]1[C@H]2CCC[C@H]2CN1C(=O)[C@@H](NC(=O)[C@@H](NC(=O)c1cnccn1)C1CCCCC1)C(C)(C)C)C(=O)C(=O)NC1CC1 [Telaprevir]
[1]; [18]
  Cholesterol-free media + simvastatin (0.04 μM): 1.084
[1]; [19]
  Complete Media: 0.9529
[1]; [26]
  Difference: −0.13
[2]; [12]
  Cholesterol-free: 1.55
[2]; NCI-H292 cells, complete media
  Complete: 1.165
[2]; [28]
  Difference: −0.39

## COc1cc2c(cc1OC)[C@H]1C[C@@H](OC(=O)[C@@H](N)C(C)C)[C@H](CC(C)C)CN1CC2 [Valbenazine]
[1]; [9]
  Cholesterol-free media + simvastatin (0.04 μM): 1.305
[1]; [10]
  Complete Media: 1.011
[1]; [11]
  Difference: −0.29
[2]; [23]
  Difference: −0.16
[2]; [21]
  Cholesterol-free: 1.298
[2]; [22]
  Complete: 1.135

## Cc1cc2nc3c(=O)[nH]c(=O)nc-3n(C[C@H](O)[C@H](O)[C@H](O)COP(=O)(O)OP(=O)(O)OC[C@H]3O[C@@H](n4cnc5c(N)ncnc54)[C@H](O)[C@@H]3O)c2cc1C
[1]; [25]
  Cholesterol-free media + simvastatin (0.04 μM): 1.111
[1]; drug in complete media
  Complete Media: 0.8891
[1]; [11]
  Difference: −0.22
[2]; [23]
  Difference: −0.12
[2]; [21]
  Cholesterol-free: 0.9242
[2]; [22]
  Complete: 0.8033

## Nc1nc(N)c2nc(-c3ccccc3)c(N)nc2n1 [Triamterene]
[1]; [9]
  Cholesterol-free media + simvastatin (0.04 μM): 1.582
[1]; [10]
  Complete Media: 1.301
[1]; [11]
  Difference: −0.28
[2]; [7]
  Cholesterol-free: 0.6087
[2]; [8]
  Complete: 1.304
[2]; [24]
  Difference: 0.69

## Cc1noc(NS(=O)(=O)c2ccc(N)cc2)c1C [Sulfisoxazole]
[1]; [18]
  Cholesterol-free media + simvastatin (0.04 μM): 1.12
[1]; [19]
  Complete Media: 1.045
[1]; [11]
  Difference: −0.08
[2]; [12]
  Cholesterol-free: 1.273
[2]; NCI-H292 cells, complete media
  Complete: 0.8703
[2]; [13]
  Difference: −0.40

## Pasiniazid
[1]; [18]
  Cholesterol-free media + simvastatin (0.04 μM): 1.047
[1]; [19]
  Complete Media: 1.325
[1]; [20]
  Difference: 0.28
[2]; [7]
  Cholesterol-free: 1.164
[2]; [8]
  Complete: 1.274
[2]; [28]
  Difference: 0.11
